PubChem BioAssay (NCI)
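Exposure lasted 48 hours, with cells grown in 96-well plates and compounds tested at five concentrations. GI50 marks 50% less growth. TGI is the concentration that stops growth completely.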

Legend:
Assay in all cases: inhibition of tumour cell growth, NCI panel, 48 h
U251 CNS = tested on: U251 CNS
UO-31 renal = tested on: UO-31 renal
SF-268 CNS = tested on: SF-268 CNS
CAKI-1 renal = tested on: CAKI-1 renal
SF-295 CNS = tested on: SF-295 CNS
HCT-15 colon = tested on: HCT-15 colon
MDA-MB-435 = tested on: MDA-MB-435
BT-549 breast = tested on: BT-549 breast
HCC-2998 colon = tested on: HCC-2998 colon
UACC-257 melanoma = tested on: UACC-257 melanoma
IGROV1 ovarian = tested on: IGROV1 ovarian
HL-60(TB) leukemia = tested on: HL-60(TB) leukemia
A549 NSCLC = tested on: A549 NSCLC
OVCAR-5 ovarian = tested on: OVCAR-5 ovarian
LOX IMVI melanoma = tested on: LOX IMVI melanoma
SK-MEL-5 melanoma = tested on: SK-MEL-5 melanoma
HOP-92 NSCLC = tested on: HOP-92 NSCLC
NCI/ADR-RES ovarian = tested on: NCI/ADR-RES ovarian
A498 renal = tested on: A498 renal
OVCAR-3 ovarian = tested on: OVCAR-3 ovarian
NCI-H460 lung = tested on: NCI-H460 lung
SK-MEL-2 melanoma = tested on: SK-MEL-2 melanoma
KM12 colon = tested on: KM12 colon
CCRF-CEM leukemia = tested on: CCRF-CEM leukemia
COLO 205 colon = tested on: COLO 205 colon
RPMI-8226 leukemia = tested on: RPMI-8226 leukemia
PC-3 prostate = tested on: PC-3 prostate
SNB-75 CNS = tested on: SNB-75 CNS

`COc1cc2oc(-c3cccc(C(=O)Nc4ccc(Cl)cc4)c3)cc(=O)c2c(OCCN)c1OC` was tested, and the GI50 (U251 CNS) was 1.79 µM, the TGI (U251 CNS) was 3.27 µM and the GI50 (UO-31 renal) was 13 µM. The TGI (UO-31 renal) was 25.7 µM, the GI50 (SF-268 CNS) was 11.8 µM and the TGI (SF-268 CNS) was 29.7 µM. It also gave a GI50 (CAKI-1 renal) of 11.2 µM, a TGI (CAKI-1 renal) of 23.6 µM and a GI50 (SF-295 CNS) of 1.8 µM. The TGI (SF-295 CNS) was 3.69 µM, the GI50 (HCT-15 colon) was 2.82 µM and the TGI (HCT-15 colon) was 8.51 µM. For the same compound, the GI50 (MDA-MB-435) was 1.82 µM, the TGI (MDA-MB-435) was 3.65 µM and the GI50 (BT-549 breast) was 6.3 µM. The TGI (BT-549 breast) was 25.7 µM, the GI50 (HCC-2998 colon) was 2.37 µM and the TGI (HCC-2998 colon) was 6.58 µM. The GI50 (UACC-257 melanoma) was 1.73 µM, the TGI (UACC-257 melanoma) was 3.41 µM and the GI50 (IGROV1 ovarian) was 4.18 µM. For the same compound, the TGI (IGROV1 ovarian) was 18.1 µM, the GI50 (HL-60(TB) leukemia) was 2.38 µM and the TGI (HL-60(TB) leukemia) was 5.9 µM. It also gave a GI50 (A549 NSCLC) of 4.06 µM, a TGI (A549 NSCLC) of 20.7 µM and a GI50 (OVCAR-5 ovarian) of 5.14 µM. The TGI (OVCAR-5 ovarian) was 18 µM, the GI50 (LOX IMVI melanoma) was 1.48 µM and the TGI (LOX IMVI melanoma) was 2.8 µM. It also gave a GI50 (SK-MEL-5 melanoma) of 1.72 µM, a TGI (SK-MEL-5 melanoma) of 3.33 µM and a GI50 (HOP-92 NSCLC) of 2.09 µM. It also gave a TGI (HOP-92 NSCLC) of 16.5 µM, a GI50 (NCI/ADR-RES ovarian) of 13.6 µM and a TGI (NCI/ADR-RES ovarian) of 30.9 µM. For the same compound, the GI50 (A498 renal) was 20.7 µM, the TGI (A498 renal) was 40.4 µM and the GI50 (OVCAR-3 ovarian) was 3.77 µM. The TGI (OVCAR-3 ovarian) was 11.7 µM, the GI50 (NCI-H460 lung) was 3.17 µM and the TGI (NCI-H460 lung) was 10.5 µM. It also gave a GI50 (SK-MEL-2 melanoma) of 4.02 µM, a TGI (SK-MEL-2 melanoma) of 16.2 µM and a GI50 (KM12 colon) of 6.84 µM. It also gave a TGI (KM12 colon) of 23.9 µM, a GI50 (CCRF-CEM leukemia) of 2.16 µM and a TGI (CCRF-CEM leukemia) of 4.84 µM. The GI50 (COLO 205 colon) was 3.03 µM, the TGI (COLO 205 colon) was 12.6 µM and the GI50 (RPMI-8226 leukemia) was 2.3 µM. The TGI (RPMI-8226 leukemia) was 5.5 µM, the GI50 (PC-3 prostate) was 2.89 µM and the TGI (PC-3 prostate) was 19.8 µM. For the same compound, the GI50 (SNB-75 CNS) was 10.1 µM and the TGI (SNB-75 CNS) was 24.1 µM.
